Experiments:
HBV core DNA = HBV core DNA synthesis: Southern blot of NC-associated core DNA from transfected cells; type: cell-based, Hepatitis B virus
From the text: (§1) FIG. 1. Effects of HBc linker mutations on cccDNA levels and NC stability. HBV replication plasmids expressing either the wild type (wt) HBc or indicated linker mutants were transfected into human hepatoma cells (HepG2). HBV DNA associated with NCs (core DNA) (lanes 1-8), or protein-free DNA (PF-DNA) (i.e., those DNA species no longer covalently attached to the viral RT protein and mostly released from NCs) (lanes 9-12) was extracted from the transfected cells and analyzed by Southern blot analysis using a radio-labeled HBV DNA probe. The core DNA shown in lanes 5-8 was extracted following prior treatment of the cell lysate with an exogenous DNase, which removes core DNA that was not protected by the capsid (i.e., from destabilized NCs). RC, rcDNA; CCC, cccDNA; SS, single stranded DNA—a reverse transcription intermediate during the synthesis of rcDNA from pgRNA.
FIG. 4. HBc linker mutants increased HBV CCC DNA by 2-30 fold. Data are shown for LC (S141T/V148I/V149I), S141A, S141D, S141R, L143A, L143I, E145D, and TT146/147AA (a combination of T146A and T147A; aka T146A/T147A).

HBV cccDNA = HBV cccDNA levels: Southern blot of protein-free DNA from HepG2 cells transfected with HBV replication plasmids; type: cell-based, Hepatitis B virus
From the text: as §1
FIG. 3. Effects of HBc linker and envelope mutations on cccDNA levels. […] HBV DNA associated with NCs (core DNA; A), or protein-free DNA (PF-DNA; B) (i.e., those DNA species no longer covalently attached to the viral RT protein and mostly released from NCs) was extracted from the transfected cells and analyzed by Southern blot analysis using a radio-labeled HBV DNA probe. […]

For L140A [Mutant L140A], the “HBV core DNA synthesis” value (HBV core DNA) was “blocked HBV core DNA synthesis” and the cccDNA formation (HBV cccDNA) was “no cccDNA was made”.
